Laboratory results taken from publication PMC10177510, “A Multicenter, Open-Label, Phase I/II Study of FN-1501 in Patients with Advanced Solid Tumors” (Cancers, 2023).
Converted amounts (≈) assume the structure as drawn.

Experiments:
MV-4-11 = details: ref data on file, Fosun Pharma; cited from earlier work
MV-4-11 xenograft = details: preclinical, no reference given; cited from earlier work
[1] = Plasma pharmacokinetics of FN-1501 and metabolite M3 in patients (LC/MS-MS, noncompartmental); format: in vivo, human; details: mean
Protocol: For PK assessment, blood samples were collected pre-dose and 0.083, 0.25, 0.5, 1, 2, 4, 6, 8, 12, 24, and 48 h post-dose on Cycle 1, Day 1, and pre-dose on Cycle 2, Day 1. Plasma concentrations of FN-1501 and its metabolite M3 were analyzed at KCAS in Shawnee, KS, using a validated liquid chromatography/tandem mass spectrometry method. Primary pharmacokinetic (PK) endpoints were derived from FN-1501 and M3 concentration–time profiles and were analyzed using standard noncompartmental methods of analysis (Phoenix version 8).

Question: For `CN1CCN(Cc2ccc(NC(=O)c3[nH]ncc3Nc3ncnc4[nH]ccc34)cc2)CC1` [FN-1501], which IC50 (MV-4-11) is on record?
Answer: 2.6 ng/mL (≈ 6.03 nM)

Question: What about the “Dose at which tumor growth reached stasis” value (MV-4-11 xenograft) of the same molecule?
Answer: 5 mg/kg

Question: What about the AUClast ([1]; 2.5 mg IV) of the same molecule?
Answer: 29.4 ± 11.9 ng·h/mL

Question: What about the “AUC∞” value ([1]; 2.5 mg IV) of the same molecule?
Answer: 32.4 ± 13.1 ng·h/mL

Question: What about the CL ([1]; 2.5 mg IV) of the same molecule?
Answer: 85.1 ± 26.8 L/h

Question: And the Cmax ([1]; 2.5 mg IV)?
Answer: 12.0 ± 1.42 ng/mL

Question: What about the “MRT∞” value ([1]; 2.5 mg IV) of the same molecule?
Answer: 11.7 ± 4.59 h

Question: And the Vss ([1]; 2.5 mg IV)?
Answer: 913 ± 206 L

Question: What about the Vz ([1]; 2.5 mg IV) of the same molecule?
Answer: 1510 ± 421 L

Question: What about the t1/2 ([1]; 2.5 mg IV) of the same molecule?
Answer: 12.8 ± 3.5 h

Question: And the tmax ([1]; 2.5 mg IV)?
Answer: 1.2 ± 0.10 h

Question: What about the AUClast ([1]; 5 mg IV) of the same molecule?
Answer: 52.1 ± 18.2 ng·h/mL

Question: And the “AUC∞” value ([1]; 5 mg IV)?
Answer: 56.5 ± 18.2 ng·h/mL

Question: And the CL ([1]; 5 mg IV)?
Answer: 93.9 ± 25.2 L/h

Question: What about the Cmax ([1]; 5 mg IV) of the same molecule?
Answer: 25.5 ± 17.3 ng/mL

Question: And the “MRT∞” value ([1]; 5 mg IV)?
Answer: 13.7 ± 3.74 h

Question: What about the Vss ([1]; 5 mg IV) of the same molecule?
Answer: 1320 ± 619 L

Question: What about the Vz ([1]; 5 mg IV) of the same molecule?
Answer: 2570 ± 932 L

Question: What about the t1/2 ([1]; 5 mg IV) of the same molecule?
Answer: 18.6 ± 2.34 h

Question: And the tmax ([1]; 5 mg IV)?
Answer: 1.1 ± 0.02 h

Question: And the AUClast ([1]; 10 mg IV)?
Answer: 119 ± 32.6 ng·h/mL

Question: And the “AUC∞” value ([1]; 10 mg IV)?
Answer: 129 ± 41.3 ng·h/mL

Question: What about the CL ([1]; 10 mg IV) of the same molecule?
Answer: 84.7 ± 32.4 L/h

Question: And the Cmax ([1]; 10 mg IV)?
Answer: 36.9 ± 17.5 ng/mL

Question: And the “MRT∞” value ([1]; 10 mg IV)?
Answer: 12.5 ± 2.84 h

Question: And the Vss ([1]; 10 mg IV)?
Answer: 1110 ± 664 L

Question: What about the Vz ([1]; 10 mg IV) of the same molecule?
Answer: 1720 ± 925 L

Question: And the t1/2 ([1]; 10 mg IV)?
Answer: 13.7 ± 2.68 h

Question: And the tmax ([1]; 10 mg IV)?
Answer: 1.2 ± 0.15 h

Question: And the AUClast ([1]; 15 mg IV)?
Answer: 138 ± 10.8 ng·h/mL

Question: What about the “AUC∞” value ([1]; 15 mg IV) of the same molecule?
Answer: 153 ± 8.45 ng·h/mL

Question: And the CL ([1]; 15 mg IV)?
Answer: 98.5 ± 5.29 L/h

Question: What about the Cmax ([1]; 15 mg IV) of the same molecule?
Answer: 35.6 ± 2.15 ng/mL

Question: What about the “MRT∞” value ([1]; 15 mg IV) of the same molecule?
Answer: 16.1 ± 2.64 h

Question: What about the Vss ([1]; 15 mg IV) of the same molecule?
Answer: 1600 ± 331 L

Question: What about the Vz ([1]; 15 mg IV) of the same molecule?
Answer: 2370 ± 536 L

Question: And the t1/2 ([1]; 15 mg IV)?
Answer: 16.6 ± 3 h

Question: And the tmax ([1]; 15 mg IV)?
Answer: 1.2 ± 0.14 h

Question: And the AUClast ([1]; 22.5 mg IV)?
Answer: 251 ± 87.8 ng·h/mL

Question: What about the “AUC∞” value ([1]; 22.5 mg IV) of the same molecule?
Answer: 239 ± 55.4 ng·h/mL

Question: And the CL ([1]; 22.5 mg IV)?
Answer: 96.9 ± 22.5 L/h

Question: And the Cmax ([1]; 22.5 mg IV)?
Answer: 65.8 ± 24.5 ng/mL

Question: What about the “MRT∞” value ([1]; 22.5 mg IV) of the same molecule?
Answer: 16.4 ± 1.01 h

Question: And the Vss ([1]; 22.5 mg IV)?
Answer: 1600 ± 466 L

Question: What about the Vz ([1]; 22.5 mg IV) of the same molecule?
Answer: 2570 ± 663 L

Question: What about the t1/2 ([1]; 22.5 mg IV) of the same molecule?
Answer: 18.3 ± 0.49 h

Question: What about the tmax ([1]; 22.5 mg IV) of the same molecule?
Answer: 1.2 ± 0.19 h

Question: And the AUClast ([1]; 30 mg IV)?
Answer: 297 ± 55.8 ng·h/mL

Question: And the “AUC∞” value ([1]; 30 mg IV)?
Answer: 341 ± 47.1 ng·h/mL

Question: What about the CL ([1]; 30 mg IV) of the same molecule?
Answer: 89.1 ± 13.3 L/h

Question: What about the Cmax ([1]; 30 mg IV) of the same molecule?
Answer: 87.8 ± 37.5 ng/mL

Question: What about the “MRT∞” value ([1]; 30 mg IV) of the same molecule?
Answer: 13.4 ± 8.49 h

Question: And the Vss ([1]; 30 mg IV)?
Answer: 1130 ± 619 L

Question: And the Vz ([1]; 30 mg IV)?
Answer: 1500 ± 786 L

Question: What about the t1/2 ([1]; 30 mg IV) of the same molecule?
Answer: 12.4 ± 7.43 h

Question: What about the tmax ([1]; 30 mg IV) of the same molecule?
Answer: 1.1 ± 0.11 h

Question: And the AUClast ([1]; 40 mg IV)?
Answer: 437 ± 77.2 ng·h/mL

Question: And the “AUC∞” value ([1]; 40 mg IV)?
Answer: 499 ± 122 ng·h/mL

Question: And the CL ([1]; 40 mg IV)?
Answer: 83.6 ± 18.6 L/h

Question: What about the Cmax ([1]; 40 mg IV) of the same molecule?
Answer: 128 ± 41.9 ng/mL

Question: What about the “MRT∞” value ([1]; 40 mg IV) of the same molecule?
Answer: 18.3 ± 6.19 h

Question: What about the Vss ([1]; 40 mg IV) of the same molecule?
Answer: 1450 ± 185 L

Question: And the Vz ([1]; 40 mg IV)?
Answer: 2160 ± 195 L

Question: What about the t1/2 ([1]; 40 mg IV) of the same molecule?
Answer: 18.7 ± 5.68 h

Question: What about the tmax ([1]; 40 mg IV) of the same molecule?
Answer: 1.1 ± 0.044 h
